Columns and labels:
Assay in all cases: AUC of viability dose-response curve (% viability x log10 dose units); higher = less sensitive
Settings in all cases: 48 h
NOMO1 = test system: NOMO1
Method in brief: (§1)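 Library compounds in DMSO were applied for 48 h at 37°C at 11 threefold doses (47 μM to 0.79 nM) to medium-adapted leukemia cells in 1536-well plates holding 500 or 1000 cells/well. Luminescence from CellTiter-Glo One was normalised plate by plate against DMSO and cell-free wells. Area under the curve came from trapezoidal integration of a log-logistic fit, after scaling curves that rose above full viability and discarding those that failed quality control. The fit had four parameters and used log10 doses.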

SEM cells = test system: SEM cells
Method in brief: as §1

P12-Ichikawa = test system: P12-Ichikawa
Method in brief: as §1

[1] = RPMI 5 mM glucose + 10% dialyzed FBS

Row | SMILES | AUC of viability dose-response curve (NOMO1; HPLM + 10% dialyzed FBS) | AUC of viability dose-response curve (NOMO1; RPMI 5 mM glucose + 10% FBS) | AUC of viability dose-response curve (NOMO1; [1]) | AUC of viability dose-response curve (SEM cells; HPLM + 10% dialyzed FBS) | AUC of viability dose-response curve (SEM cells; RPMI 5 mM glucose + 10% FBS) | AUC of viability dose-response curve (SEM cells; [1]) | AUC of viability dose-response curve (P12-Ichikawa; HPLM + 10% dialyzed FBS) | AUC of viability dose-response curve (P12-Ichikawa; RPMI 5 mM glucose + 10% FBS) | AUC of viability dose-response curve (P12-Ichikawa; [1])
1 | Cc1c(C(=O)NN2CCCCC2)nn(-c2ccc(Cl)cc2Cl)c1-c1ccc(Cl)cc1 | 325 | 303 | 337 | 473 | 455 | 469 | – | – | –
2 | CC(C)C[C@@H](C=O)NC(=O)[C@H](CC(C)C)NC(=O)[C@H](CC(C)C)NC(=O)OCc1ccccc1 | 337 | 312 | 351 | 305 | 279 | 315 | 364 | 324 | 361
3 | CNC1CCC(N(Cc2cccc(-c3ccncc3)c2)C(=O)c2sc3c(F)ccc(F)c3c2Cl)CC1 (stereo not drawn) | 453 | 470 | 466 | 455 | 464 | 445 | 467 | 466 | 463
4 | CN1CCCN=C1/C=C/c1cccs1.O=C(O)c1cc2ccccc2c(Cc2c(O)c(C(=O)O)cc3ccccc23)c1O | 417 | 446 | 436 | 467 | 442 | 453 | 413 | 462 | 462
5 | COc1cc2c(cc1OC)CC(=O)N(CCCN(C)C[C@H]1Cc3cc(OC)c(OC)cc31)CC2.Cl | 466 | 463 | 440 | 464 | 465 | 469 | 475 | 477 | 459
6 | CNC(=O)c1ccc(N2C(=S)N(c3ccc(C#N)c(C(F)(F)F)c3)C(=O)C23CCC3)cc1F | – | – | – | 425 | 408 | 411 | – | – | –
7 | COc1cc2nccc(Oc3ccc(NC(=O)NC4CC4)c(Cl)c3)c2cc1C(N)=O | 439 | 448 | 445 | 378 | 378 | 359 | 429 | 429 | 430
8 | COc1ccc(-n2nc(C(N)=O)c3c2C(=O)N(c2ccc(N4CCCCC4=O)cc2)CC3)cc1 | 313 | 270 | 300 | 464 | 432 | 442 | 371 | 370 | 381
9 | O=C(c1ccc(Nc2nccc(-c3cc4ccccc4s3)n2)cc1)N1CCC(N2CCCC2)CC1 | 411 | 446 | 432 | 382 | 389 | 394 | 430 | 441 | 425
10 | Cc1cn(-c2cc(NC(=O)c3ccc(C)c(Nc4nccc(-c5cccnc5)n4)c3)cc(C(F)(F)F)c2)cn1 | 436 | 407 | 419 | 377 | 345 | 347 | 328 | 340 | 346
11 | O=C(Nc1c(Cl)cncc1Cl)c1ccc(OC(F)F)c(OCC2CC2)c1 | 459 | 465 | 476 | 453 | 452 | 455 | 475 | 467 | 466
12 | O=C(Nc1cc2cc[nH]c2cn1)c1ccccc1 | 366 | 385 | 401 | 359 | 335 | 364 | 360 | 414 | 386
13 | O=c1[nH]c2ccccc2n1C1CCN(Cc2ccc(-c3nc4cc5nc[nH]c5cc4nc3-c3ccccc3)cc2)CC1 | 439 | 463 | 474 | – | – | – | 457 | 460 | 443
14 | NC(=O)c1ccc(I)c([N+](=O)[O-])c1 | 468 | 475 | 464 | 473 | 470 | 467 | 461 | 457 | 468
15 | Cc1cnc(NC(=O)Nc2cc(Br)c(C)cc2OC[C@@H]2CNCCO2)cn1 | 355 | 409 | 365 | 328 | 350 | 326 | 424 | 435 | 393
16 | C[C@]12CCC(=O)C=C1CC[C@@H]1[C@@H]2CC[C@@]2(C)[C@H]1CC[C@]2(C)O | 440 | 430 | 453 | – | – | – | 465 | 458 | 452
17 | CC(C)(C)c1[nH]cnc1/C=c1\[nH]c(=O)/c(=C/c2ccccc2)[nH]c1=O | 200 | 129 | 160 | – | – | – | – | – | –
18 | N[C@H](CSC(c1ccccc1)(c1ccccc1)c1ccccc1)C(=O)O | 470 | 466 | 465 | – | – | – | 472 | 437 | 470
19 | COc1ncc(-c2ccc3nccc(-c4ccnnc4)c3c2)cc1N[S+](=O)([O-])c1ccc(F)cc1F | 303 | 279 | 297 | – | – | – | 354 | 266 | 310
20 | C\C1=C(\C=C(\C#N)C(=O)N1)C2=CC=NC=C2 | 474 | 464 | 468 | 418 | 471 | 460 | – | – | –
21 | Cc1ccc([S+](=O)([O-])N[C@@H](Cc2ccccc2)C(=O)CCl)cc1 | 463 | 434 | 450 | 427 | 429 | 420 | – | – | –
22 | Cc1c(NC(=O)OC[C@@H]2COCCN2)cn2ncnc(Nc3ccc4c(cnn4Cc4cccc(F)c4)c3)c12 | 379 | 410 | 397 | – | – | – | 422 | 401 | 417
23 | C[S+](=O)([O-])N1CCc2c(-c3cnc(N)nc3)nc(N3CCOCC3)nc21 | 418 | 442 | 404 | – | – | – | 457 | 431 | 440
24 | O=C1c2c(O)ccc(O)c2C(=O)c2c(NCCNCCO)ccc(NCCNCCO)c21 | – | – | – | 251 | 261 | 261 | 286 | 280 | 296
25 | CCN1\C=C(\C(O)=O)C(=O)C2=CC=C(C)N=C12 | – | – | – | 397 | 425 | 410 | 466 | 426 | 427
26 | CSCC[C@@H](NC(=O)[C@@H](Cc1ccccc1)NC(=O)CNC(=O)CNC(=O)[C@@H](N)Cc1ccc(O)cc1)C(=O)O | – | – | – | 406 | 389 | 409 | – | – | –

From the supplement of paper PMC11451515
